A short description of data set [1]: refractive index (Na D-line) (dimensionless). The settings on record: 101.33 kPa, Liquid, Standard Abbe refractometry.
For data set [2] the following is noted: 101.33 kPa, Liquid.
A short description of data set [3]: molar heat capacity at constant pressure; xn = mol fraction of the nth substance listed. The settings on record: Liquid, x1 = 1.

Consider 7 compounds from the NIST ThermoML archive (doi:10.1021/je0501991).

± gives the expanded uncertainty stated by the source.

For the compound `OCCc1ccccc1` [2-phenylethanol], the refractive index (commonly a measure of how strongly the sample bends light) in data set [1] (308.15 K) was 1.5267 ± 0.0008. For the same compound, in data set [2] (308.15 K), the mass density (usually the mass of a sample divided by its volume) is on record as 1008.79 ± 0.54 kg/m3 and the viscosity (in general, the resistance of a fluid to flow) stood at 7.438 ± 0.12 mPa·s.

For `OCCCc1ccccc1` [3-phenyl-1-propanol], in data set [1] (308.15 K), the refractive index is given as 1.521 ± 0.001. In addition, the viscosity in data set [2] (298.15 K) is on record as 10.13 ± 0.17 mPa·s. Besides, in data set [2] (308.15 K), the mass density was found to be 991.17 ± 0.53 kg/m3.

Turning to `OCc1ccccc1` [benzenemethanol], the values for the refractive index in data set [1] (298.15 K) and in data set [1] (308.15 K) were 1.5377 ± 0.0005 and 1.535 ± 0.0005, respectively. Besides, the values for the mass density in data set [2] (298.15 K) and in data set [2] (308.15 K) were 1041.65 ± 0.27 kg/m3 and 1033.66 ± 0.25 kg/m3, respectively. The viscosity in data set [2] (298.15 K) is recorded as 5.211 ± 0.076 mPa·s; in data set [2] (308.15 K), 4.125 ± 0.062 mPa·s.

Consider `C[S+](C)[O-]` [dimethyl sulfoxide], for which the refractive index in data set [1] (298.15 K) was 1.4775 ± 0.0004; in data set [1] (308.15 K), 1.473 ± 0.0004. For the same compound, the viscosity in data set [2] (298.15 K, Capillary tube (Ostwald / Ubbelohde) method) worked out at 1.989 ± 0.023 mPa·s; in data set [2] (308.15 K, Capillary tube (Ostwald / Ubbelohde) method), 1.645 ± 0.019 mPa·s. The mass density in data set [2] (298.15 K, Vibrating tube method) is on record as 1095.68 ± 0.09 kg/m3; in data set [2] (308.15 K, Vibrating tube method), 1085.31 ± 0.09 kg/m3.

As to `C[S+](C)[O-]` [dimethyl sulfoxide] + OCCCc1ccccc1, the “molar heat capacity at constant pressure” value in data set [3] (298.15 K, 101 kPa) amounted to 142.7 ± 11 J/K/mol; in data set [3] (308.15 K, 101 kPa), 143.5 ± 12 J/K/mol; in data set [3] (318.15 K, 101 kPa) it was 144.6 ± 12 J/K/mol.

On to `C[S+](C)[O-]` [dimethyl sulfoxide] + OCCc1ccccc1, for which the “molar heat capacity at constant pressure” value in data set [3] (298.15 K, 101.33 kPa) was found to be 142.7 ± 11 J/K/mol; in data set [3] (308.15 K, 101.33 kPa), 143.5 ± 12 J/K/mol; in data set [3] (318.15 K, 101.33 kPa) it was 144.6 ± 12 J/K/mol.

Take `C[S+](C)[O-]` [dimethyl sulfoxide] + OCc1ccccc1: the “molar heat capacity at constant pressure” value was found to be 142.7 ± 11 J/K/mol in data set [3] (298.15 K, 101.33 kPa); 143.5 ± 12 J/K/mol in data set [3] (308.15 K, 101.33 kPa); 144.6 ± 12 J/K/mol in data set [3] (318.15 K, 101.33 kPa).
